Measurements reported in patent publication US20240423973A1, “COMPOUNDS, PHARMACEUTICAL COMPOSITIONS, AND METHODS FOR THE TREATMENT, PREVENTION, OR MANAGEMENT OF HYPERPROLIFERATIVE DISORDERS” (VINCERX PHARMA GMBH, priority 2021, published 2024).
Structures can show the parent of a compound that is named as a salt.

How the values were obtained:
Assay in all cases: Cytotoxicity in vitro in the presence and absence of elastase (MTT assay)
SUM149 = assay type: cell-based; settings: SUM149 cells, 72 h
Procedure: (§1) Cultivation of cells was performed according to standard procedures with the media recommended by the provider. The cells, in a total volume of 100 μL, were seeded in a 96-well plate with a white bottom (#3610). After a 24 h incubation period at 37° C. and 5% CO2, the medium was exchanged by adding 90 μL fresh medium. The treatment started by adding the test compound in 10 μL of culture medium to the cells in triplicates. Concentrations ranging from 10^−5 M to 10^−13 M were chosen. Two identically treated sets of samples were prepared. One set was treated with the test compound alone, whereas to the second set the compound and 10 nM elastase was added followed by a 72 h incubation period at 37° C. and 5% CO2. The proliferation was detected using the MTT assay (ATCC). At the end of the incubation period the MTT reagent was added to all samples for 4h. Lysis of the cells followed by addition of the detergent was done overnight. The formed dye was detected at 570 nm. The proliferation of untreated but otherwise identically handled cells was define as the […].

HT29 = assay type: cell-based, human; settings: HT29 cells, 72 h
Procedure: as §1

NCI H292 = assay type: cell-based, human; settings: NCI H292 cells, 72 h
Procedure: as §1

786-O = assay type: cell-based, human; settings: 786-O cells, 72 h
Procedure: as §1

SMILES | IC50 (SUM149; compound alone (no elastase)) [nM] | IC50 (SUM149; with 10 nM elastase) [nM] | IC50 (HT29; compound alone (no elastase)) [nM] | IC50 (HT29; with 10 nM elastase) [nM] | IC50 (NCI H292; compound alone (no elastase)) [nM] | IC50 (NCI H292; with 10 nM elastase) [nM] | IC50 (786-O; compound alone (no elastase)) [nM] | IC50 (786-O; with 10 nM elastase) [nM]
CCCNC(=O)Nc1cccc(S(=O)(=O)Nc2cccc([C@@H](CC(=O)O)NC(=O)Nc3ccc(NC(=O)NCCCC[C@H](NC(=O)Nc4ccc(NC(=O)N[C@H](CC(=O)O)c5cccc(NS(=O)(=O)c6cccc(NC(=O)NCCC)c6)c5)cc4)C(=O)NCCOCCOCCOCCC(=O)N[C@@H](CC(=O)O)C(=O)N4CCC[C@H]4C(=O)N[C@H](C(=O)O[C@]4(CC)C(=O)OCc5c4cc4n(c5=O)Cc5c-4nc4ccccc4c5CC)C(C)C)cc3)c2)c1 [Compound A1, Trisodium (4S)-4,11-diethyl-3,14-dioxo-3,4,12,14-tetrahydro-1H-pyrano[3′,4′:6,7]indolizino [1,2-b]quinoline-4-yl 1-[(2S)-15-{[N^2,N^6-bis({4-[({(1R)-2-carboxylato-1-[3-({3-[(propylcarbamoyl)amino]benzene-1-sulfonyl}amino)phenyl]ethyl}carbamoyl)amino]phenyl}carbamoyl)-L-lysyl]amino}-2-(carboxylatomethyl)-4-oxo-7,10,13-trioxa-3-azapentadecanan-1-oyl]-L-prolyl-L-valinate] | 10 to 100 | 0.01 to 0.1 | > 100 | 0.01 to 0.1 | 10 to 100 | 0.1 to 1 | 10 to 100 | 0.1 to 1
CCCNC(=O)Cc1cccc(S(=O)(=O)Nc2cccc([C@@H](CC(=O)O)NC(=O)Nc3ccc(NC(=O)NCCOCCOCCOCCC(=O)N[C@@H](CCCCNC(=O)CCOCCOCCOCCNC(=O)Nc4ccc(NC(=O)N[C@H](CC(=O)O)c5cccc(CS(=O)(=O)c6cccc(NC(=O)NCCC)c6)c5)cc4)C(=O)NCCN(C)CCN(C)CCN(C)CC(=O)N[C@@H](CC(N)=O)C(=O)N4CCC[C@H]4C(=O)N[C@H](C(=O)O[C@]4(CC)C(=O)OCc5c4cc4n(c5=O)Cc5c-4nc4ccccc4c5CC)C(C)C)cc3)c2)c1 [Compound A5] | 1.1 to 10 | < 0.01 | 10 to 100 | 0.01 to 0.1 | 1.1 to 10 | < 0.01 | 10 to 100 | 0.01 to 0.1
CCCNC(=O)Cc1cccc(S(=O)(=O)Nc2cccc([C@H](CC(=O)O)NC(=O)Nc3ccc(NC(=O)NCCOCCOCCOCCC(=O)N[C@@H](CCCCNC(=O)CCOCCOCCOCCNC(=O)Nc4ccc(NC(=O)N[C@@H](CC(=O)O)c5cccc(NS(=O)(=O)c6cccc(NC(=O)NCCC)c6)c5)cc4)C(=O)NCCN(C)CCN(C)CCN(C)CC(=O)N[C@@H](CC(N)=O)C(=O)N4CCC[C@H]4C(=O)N[C@H](C(=O)O[C@]4(CC)C(=O)OCc5c4cc4n(c5=O)Cc5c-4nc4ccccc4c5CC)C(C)C)cc3)c2)c1 [Compound A6] | 1.1 to 10 | 0.01 to 0.1 | 10 to 100 | 0.1 to 1 | 1.1 to 10 | 0.1 to 1 | 10 to 100 | 0.1 to 1
CCCNC(=O)Nc1cccc(S(=O)(=O)Nc2cccc([C@@H](CC(=O)O)NC(=O)Nc3ccc(NC(=O)NCCCCN(C)CCN(C)CCN(C)CC(=O)N[C@@H](CCCCNC(=O)CN(C)CCN(C)CCN(C)CCNC(=O)Nc4ccc(NC(=O)N[C@H](CC(=O)O)c5cccc(NS(=O)(=O)c6cccc(NC(=O)NCCC)c6)c5)cc4)C(=O)NCCN(C)CCN(C)CCN(C)CC(=O)N[C@@H](CC(N)=O)C(=O)N4CCC[C@H]4C(=O)N[C@H](C(=O)O[C@]4(CC)C(=O)OCc5c4cc4n(c5=O)Cc5c-4nc4ccccc4c5CC)C(C)C)cc3)c2)c1 [Compound A7] | 1.1 to 10 | 0.1 to 1 | 10 to 100 | 0.1 to 1 | 1.1 to 10 | 0.1 to 1 | 10 to 100 | 0.1 to 1
CCCNC(=O)Nc1cccc(S(=O)(=O)Nc2cccc([C@H](CC(=O)O)NC(=O)Nc3ccc(NC(=O)NCCN(C)CCN(C)CCN(C)CC(=O)NCCCC[C@H](NC(=O)CN(C)CCN(C)CCN(C)CCNC(=O)Nc4ccc(NC(=O)N[C@@H](CC(=O)O)c5cccc(NS(=O)(=O)c6cccc(NC(=O)NCCC)c6)c5)cc4)C(=O)NCCN(C)CCN(C)CCN(C)CC(=O)N[C@@H](CC(N)=O)C(=O)N4CCC[C@H]4C(=O)N[C@H](C(=O)O[C@]4(CC)C(=O)OCc5c4cc4n(c5=O)Cc5c-4nc4ccccc4c5CC)C(C)C)cc3)c2)c1 [Compound A8] | 1.1 to 10 | 0.1 to 1 | 10 to 100 | 0.1 to 1 | 1.1 to 10 | 0.1 to 1 | 10 to 100 | 0.1 to 1
CCCNC(=O)Nc1cccc(S(=O)(=O)Nc2cccc([C@@H](CC(=O)O)NC(=O)Nc3ccc(NC(=O)NCCN(C)CCN(C)CCN(C)CC(=O)NCC(=O)N4CCC[C@H]4C(=O)N[C@H](C(=O)O[C@]4(CC)C(=O)OCc5c4cc4n(c5=O)Cc5c-4nc4ccccc4c5CC)C(C)C)cc3)c2)c1 [Compound B2, (4S)-4,11-diethyl-3,14-dioxo-3,4,12,14-tetrahydro-1H-pyrano[3′,4′:6,7]indolizino[1,2-b]quinolin-4-yl N-{2-[{2-[{2-[({4-[({(1R)-2-carboxy-1-[3-({3-[(propylcarbamoyl)amino]benzene-1-sulfonyl}amino)phenyl]ethyl}carbamoyl)amino]phenyl}carbamoyl)amino]ethyl}(methyl)amino]ethyl}(methyl)amino]ethyl}-N-methylglycylglycyl-L-prolyl-L-valinate] | 0.1 to 1 | < 0.01 | 10 to 100 | < 0.01 | 1.1 to 10 | < 0.01 | 1.1 to 10 | < 0.01
CCCNC(=O)Nc1cccc(S(=O)(=O)Nc2cccc([C@@H](CC(=O)O)NC(=O)Nc3ccc(NC(=O)NCCN(C)CCN(C)CCN(C)CC(=O)N[C@@H](CC(N)=O)C(=O)N4CCC[C@H]4C(=O)N[C@H](C(=O)O[C@]4(CC)C(=O)OCc5c4cc4n(c5=O)Cc5c-4nc4ccccc4c5CC)C(C)C)cc3)c2)c1 [Compound B4, (4S)-4,11-Diethyl-3,14-dioxo-3,4,12,14-tetrahydro-1H-pyrano[3′,4′:6,7]indolizino[1,2-b]quinolin-4-yl N-{2-[{2-[{2-[({4-[({(1R)-2-carboxy-1-[3-({3-[(propylcarbamoyl)amino]benzene-1-sulfonyl}amino)phenyl]ethyl}carbamoyl)amino]phenyl}carbamoyl)amino]ethyl} (methyl)amino]ethyl} I(methyl)amino]ethyl}-N-methylglycyl-L-asparaginyl-L-prolyl-L-valinate] | 1.1 to 10 | < 0.01 | 10 to 100 | 0.01 to 0.1 | 10 to 100 | 0.01 to 0.1 | 10 to 100 | 0.01 to 0.1
CCCNC(=O)Nc1cccc(S(=O)(=O)Nc2cccc([C@@H](CC(=O)O)NC(=O)Nc3ccc(NC(=O)NCCOCCOCCOCCC(=O)N[C@@H](CC(=O)OCC[N+](C)(C)C)C(=O)N4CCC[C@H]4C(=O)N[C@H](C(=O)O[C@]4(CC)C(=O)OCc5c4cc4n(c5=O)Cc5c-4nc4ccccc4c5CC)C(C)C)cc3)c2)c1 [Compound C1, trifluoroacetate] | 10 to 100 | 0.01 to 0.1 | 10 to 100 | 0.01 to 0.1 | 10 to 100 | 0.01 to 0.1 | 10 to 100 | 0.01 to 0.1
CCCNC(=O)Nc1cccc(S(=O)(=O)Nc2cccc([C@@H](CC(=O)O)N(C(=O)NC(N)=O)c3ccc(NCCCCOC(=O)C[C@H](NC(=O)CCOCCOCCOCCNc4ccc(N(C(=O)NC(N)=O)[C@H](CC(=O)O)c5cccc(NS(=O)(=O)c6cccc(NC(=O)NCCC)c6)c5)cc4)C(=O)N4CCC[C@H]4C(=O)N[C@H](C(=O)O[C@]4(CC)C(=O)OCc5c4cc4n(c5=O)Cc5c-4nc4ccccc4c5CC)C(C)C)cc3)c2)c1 [Compound C4] | 1.1 to 10 | 0.01 to 0.1 | > 100 | 0.01 to 0.1 | 1.1 to 10 | 0.01 to 0.1 | 10 to 100 | 0.01 to 0.1
CCCNC(=O)Nc1cccc(S(=O)(=O)Nc2cccc([C@@H](CC(=O)O)NC(=O)Nc3ccc(NC(=O)NCCOCCOCCOCCC(=O)N[C@@H](CC(=O)OCCCCN(C)C)C(=O)N4CCC[C@H]4C(=O)N[C@H](C(=O)O[C@]4(CC)C(=O)OCc5c4cc4n(c5=O)Cc5c-4nc4ccccc4c5CC)C(C)C)cc3)c2)c1 [Compound C6, sodium (3R)-3-[({4-[({(10S)-10-[(2S)-2-{[(2S)-1-{[(4S)-4,11-diethyl-3,14-dioxo-3,4,12,14-tetrahydro-1H-pyrano[3′,4′:6,7]indolizino[1,2-b]quinolin-4-yl]oxy}-3-methyl-1-oxobutan-2-yl]carbamoyl}pyrrolidine-1-carbonyl]-2-methyl-8,12-dioxo-7,15,18,21-tetraoxa-2,11-diazatricosan-23-yl}carbamoyl)amino]phenyl}carbamoyl)amino]-3-[3-({3-[(propylcarbamoyl)amino]benzene-1-sulfonyl}amino)phenyl]propanoate] | 10 to 100 | 0.01 to 0.1 | 10 to 100 | 0.1 to 1 | 10 to 100 | 0.1 to 1 | 10 to 100 | 0.1 to 1
CCCNC(=O)Nc1cccc(S(=O)(=O)Nc2cccc([C@@H](CC(=O)OCCCCN)NC(=O)Nc3ccc(NC(=O)NCCOCCOCCOCCC(=O)N[C@@H](CC(=O)OCCCCN)C(=O)N4CCC[C@H]4C(=O)N[C@H](C(=O)O[C@]4(CC)C(=O)OCc5c4cc4n(c5=O)Cc5c-4nc4ccccc4c5CC)C(C)C)cc3)c2)c1 [Compound C7] | 1.1 to 10 | < 0.01 | > 100 | 0.1 to 1 | 1.1 to 10 | 0.01 to 0.1 | 10 to 100 | 0.1 to 1
